Measurements taken from patent US7723289B2, “PIF tetrapeptides” (BioIncept, LLC, priority 2003, dated 2010).
Like-named read-outs stand apart in the source and are kept apart here.

Columns and labels:
PBMC [1] = test: PIF and analogues on release of cytokines +/- platebound mAbCD3 (Table 4); type: cell-based; set-up: IL-1β / TNFa / IL-4 / IL-5 / IL-6 / IL-10 / GM-CSM / IFN-g: unit not given here
[2] = system: THP1 a monocyte cell line; conditions: 1-100 nM, no mitogen
Source text: The effect of PIF-1 was examined on THP1 a monocyte cell line (Dr Sharma Brown Univ).

epithelial cells = test: PIF binding to endometrial epithelial cells (MaBCD2 staining); set-up: species or system human; conditions: compared to non-relevant IgG
Method: (§1) In addition, to compare the recovery of β-3 integrin expression with PIF effects described after cultured hEEC in a free-fetal bovine serum (FBS) medium some cells were cultured again in FBS-medium. […] PIF binding to epithelial cells was also examined. Binding was examined using MaBCD2 staining.

[3] = system: PIF-1 polyclonal antibody; test: PIF-1 competitive ELISA, biotin labeled versus unlabeled peptide; type: binding, rabbits; conditions: 4.5 ug/ml pAb coating concentration; read-out: IC50 of dose response curve
PBMC [4] = test: PIF-1 effects on cytokine expression in patient and control PBMC (Table 7); type: cell-based, human; conditions: for TH1/TH2 change in parentheses: PHA + PIF-115 + vs PHA + alone; for IL-10 / TH1/TH2 / TNFα: PHA +, PIF-115 +
human lymphocytes = system: human lymphocytes
Method: Human PBMC were isolated and cultured for 2-4 days in AIM-V medium containing 0 to 200 nM of sPIF-115 (SEQ ID NO:13) or scrPIF-115 (SEQ ID NO:5). The following proliferation-activating agents were used: anti-CD3 antibody (10 μg/ml solution) bound on the plate wells in the presence or absence of IL-2 at 10 μg/ml; phytohemmaglutinin (PHA) at 4 μg/ml. The effects of sPIF-115 (SEQ ID NO:13) or scrPIF-115 (SEQ ID NO:5) peptides were also determined by the mixed lymphocyte reaction (MLR) after 3 days in heterologous cultures of PBMC with cells previously treated with mitomycin C (100 μg/ml for 4 h). Cell proliferation was determined by tritiated thymidine incorporation (16 h) of 72-h culture. Cytokine release (IL-4, IL-10, IFN-γ and TNF-α) into culture supernatants was determined at 72 h of culture by ELISA (R&D System).

β-3 integrin = β-3 integrin expression by human endometrial epithelial cells (flow cytometry, immunocytochemistry); type: cell-based
Method: Human endometrial tissues were digested and stromal and epithelial cells (hEEC) isolated and cultured with a fetal bovine serum (FBS)-enriched medium until confluent layers were obtained. After that the cells were cultured for two more days in a FBS free-medium followed by a further 2-day culture in the same medium containing PIF peptides (1-500 nM).
as §1

PBMC [5] = test: FITC-labeled PIF binding to PBMC subpopulations (flow cytometry); set-up: species or system human
Method: Expression of PIF-1(15) (SEQ ID NO:1), receptor following PHA induced PBMC proliferation CD-4 T cells; CD-8 T cells; NK cell and B cells (unstimulated-top); (PHA stimulated-bottom). Flow cytometry analysis of PBMC following exposure to FITC sPIF-1(15) (SEQ ID NO:13) % expression was determined in PBMC subtypes before and after exposure to 1 ug/ml PHA for 24 hours.
Human PBMC were isolated by the Ficoll method. FITC-labeled nPIF-115 (SEQ ID NO: 1) and (FITC)-labeled scrPIF-1 (SEQ ID NO:5) and match-size irrelevant peptide (FITC)-labeled negative controls negPIF-1(15) (SEQ ID NO:11), were dissolved in PBS at concentrations ranging from 0.75 to 48.19 μM, and were incubated with 500,000 lymphocytes for 1 h at room temperature. The cells were washed 6 times with PBS and resuspended in 500 μl of the same buffer. T-cells and monocytes identification was performed in independent experiments by incubation with anti-CD3 and anti-CD14 antibody-phycoerithryn (PE) labeled. nPIF-115 (SEQ ID NO: 1) binding to PBMC was determined by flow cytometry. In addition, rosettes formed by T cell-platelets were detected by flow cytometry using anti-CD3 antibody-PE and anti-CD41a antibody-FITC (all antibodies were from Pharmingen Inc.).
Using flow cytometry fluoroscein-labeled sPIF-115 (SEQ ID NO: 13) binding to immune cells was examined on resting PBMC.

CD2 = CD2 expression in PBMC (flow cytometry, CD2MAb-FITC); type: cell-based; conditions: PBMC exposed 3 days
[6] = PBMC within 24 hrs of PHA activation

Method for T cells: We have examined using calcium mobilization in T cells which is central to T-Cell activation initiated by antigen presentation to the T-Cell Receptor (TCR) antigen whether PIF-1 acts through mobilization of Ca++flux. Activation of T-cells was carried out by using phorbal ester (PMA) and Ca2+ ionomycin both of which synergize through two different signaling pathways the former through Protein Kinase C, while the later through Tyrosine Kinases. […] We have also looked at Tcell activation using PHA.
Calcium channel analysis method: 2E6 freshly isolated PBMC in RPMI1640+10% FBS (HI) and equilibrated for 24 hours. Cells are loaded with a proprietary dye that fluorescence when bound with Ca++. PIF-11 or 50 nM as well as 1-50 nM scrPIF-1 were added prior to inducing the cells with PMA/ionomycin or PHA20 ug/ml or vehicle 0.005% DMSO. PIF-1 treated cells are loaded into the Flexstation and the inducer is added robotically with a liquid handler. At a precise time fluorescence monitoring commences. CA++ mobilization involves initially at least sequestered within organelles to the cytoplasm where it binds with the dye and produces a fluorescent signal.

MVRIKPGSANKPSDD [sPIF-1(15)]
GM-CSM (PBMC [1]; C- (platebound mAbCD3), /1): 20.7 | IFN-g (PBMC [1]; C- (platebound mAbCD3), /1): 122.6 | IL-1β (PBMC [1]; C- (platebound mAbCD3), /1): 3.4 | IL-2 (PBMC [1]; C- (platebound mAbCD3), /1): 21.4 | IL-4 (PBMC [1]; C- (platebound mAbCD3), /1): 17.2 | IL-5 (PBMC [1]; C- (platebound mAbCD3), /1): 0 | IL-6 (PBMC [1]; C- (platebound mAbCD3), /1): 204.2 | IL-8 (PBMC [1]; C- (platebound mAbCD3), /1): >5000 | IL-10 (PBMC [1]; C- (platebound mAbCD3), /1): 72.9 | TNFa (PBMC [1]; C- (platebound mAbCD3), /1): 135.7 | GM-CSM (PBMC [1]; C- (platebound mAbCD3), /50): 29.1 | IFN-g (PBMC [1]; C- (platebound mAbCD3), /50): 130.3 | IL-1β (PBMC [1]; C- (platebound mAbCD3), /50): 4.4 | IL-2 (PBMC [1]; C- (platebound mAbCD3), /50): 31.0 | IL-4 (PBMC [1]; C- (platebound mAbCD3), /50): 17.9 | IL-5 (PBMC [1]; C- (platebound mAbCD3), /50): 0 | IL-6 (PBMC [1]; C- (platebound mAbCD3), /50): 287.7 | IL-8 (PBMC [1]; C- (platebound mAbCD3), /50): >5000 | IL-10 (PBMC [1]; C- (platebound mAbCD3), /50): 77.0 | TNFa (PBMC [1]; C- (platebound mAbCD3), /50): 223.5 | GM-CSM (PBMC [1]; U- (no mAbCD3), /1): 12.5 | IFN-g (PBMC [1]; U- (no mAbCD3), /1): 0 | IL-1β (PBMC [1]; U- (no mAbCD3), /1): 0 | IL-2 (PBMC [1]; U- (no mAbCD3), /1): 19.9 | IL-4 (PBMC [1]; U- (no mAbCD3), /1): 0 | IL-5 (PBMC [1]; U- (no mAbCD3), /1): 0 | IL-6 (PBMC [1]; U- (no mAbCD3), /1): 32.2 | IL-8 (PBMC [1]; U- (no mAbCD3), /1): 963.0 | IL-10 (PBMC [1]; U- (no mAbCD3), /1): 0 | TNFa (PBMC [1]; U- (no mAbCD3), /1): 0 | GM-CSM (PBMC [1]; U- (no mAbCD3), /50): 0 | IFN-g (PBMC [1]; U- (no mAbCD3), /50): 0 | IL-1β (PBMC [1]; U- (no mAbCD3), /50): 0 | IL-2 (PBMC [1]; U- (no mAbCD3), /50): 0 | IL-4 (PBMC [1]; U- (no mAbCD3), /50): 0 | IL-5 (PBMC [1]; U- (no mAbCD3), /50): 0 | IL-6 (PBMC [1]; U- (no mAbCD3), /50): 37.8 | IL-8 (PBMC [1]; U- (no mAbCD3), /50): 1426.7 | IL-10 (PBMC [1]; U- (no mAbCD3), /50): 0 | TNFa (PBMC [1]; U- (no mAbCD3), /50): 0 | IL10 secretion [2]: dose dependent increase | binding to epithelial cells (epithelial cells): highest binding | IC50 [3]: 0.5 to 0.7 nM | TH1/TH2 change in parentheses (PBMC [4]; control): −19% | IL-10 (PBMC [4]; control): 28.18 % of total PBMC in scatter gate | TH1/TH2 (PBMC [4]; control): 0.55 | TNFα (PBMC [4]; control): 15.46 % of total PBMC in scatter gate | TH1/TH2 change in parentheses (PBMC [4]; patient): +32% | IL-10 (PBMC [4]; patient): 24.32 % of total PBMC in scatter gate | TH1/TH2 (PBMC [4]; patient): 0.75 | TNFα (PBMC [4]; patient): 18.32 % of total PBMC in scatter gate | concentration at which lower rates of lymphocyte proliferation was found (human lymphocytes; MLR): 1 nM | concentration at which lower rates of lymphocyte proliferation was found (human lymphocytes; PHA stimulated): 250 nM | concentration at which lower rates of lymphocyte proliferation was found (human lymphocytes; anti-CD3 antibody stimulated): 62.5 nM | PHA stimulation of Ca2+ influx (T cells; PHA activated T cells): does not show any inhibition | Ca++ mobilization (T cells; PMA and ionomycin activated T-cells, 1 nM-50 uM): did not affect | increase in the expression of β-3-epithelial integrin (β-3 integrin; hEEC, 2-day culture, 1-500 nM): up to a four-fold increase | interaction with cultures of human endometrial stromal cells (β-3 integrin; stromal cells): did not interact | fluorescence-labeled peptide binding to human lymphocytes (PBMC [5]; FIG. 1(A)): dose dependent manner | B cells positive for fluorescent PIF binding (PBMC [5]; [6]): > 90% | T lymphocytes positive for fluorescent PIF binding (PBMC [5]; [6]): 60-80% | binding to platelets (PBMC [5]; basal state): not to platelets | binding to monocytes (PBMC [5]; basal state, unstimulated PBMC): binds all monocytes | binding to NK cells (PBMC [5]; even after several days in culture with PHA): did not appear to bind | binding site expression on resting T cells (CD4+, CD8+), B cells (CD19+), NK cells (CD56) (PBMC [5]; resting PBMC): very low | increase in CD2 expression (CD2): 170-200%
